From PubChem BioAssay (NCI) come the findings set out here.

What all share (assay): NCI tumour cell line growth inhibition, 48 h
In experiment [1] the test system is 786-0 renal.
The subject of experiment [2] is BT-549 breast.
For experiment [3], the system named is CCRF-CEM leukemia.
For experiment [4], the system named is DU-145 prostate.
Experiment [5] deals with HS 578T breast.
Experiment [6] relates to HT29 colon.
Experiment [7] has as its system K-562 leukemia.
Experiment [8] deals with MALME-3M melanoma.
Experiment [9] has as its system MDA-MB-231 breast.
In experiment [10] the test system is MDA-N.
Experiment [11] relates to OVCAR-3 ovarian.
The subject of experiment [12] is OVCAR-5 ovarian.
Experiment [13] concerns OVCAR-8 ovarian.
The test system of experiment [14] is RXF 393 renal.
Experiment [15] deals with SF-539 CNS.
Experiment [16] has as its system SK-MEL-28 melanoma.
The subject of experiment [17] is SK-MEL-5 melanoma.
Experiment [18] has as its system SNB-19 CNS.
For experiment [19], the system named is TK-10 renal.
Experiment [20] concerns UO-31 renal.

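In this assay, cells in 96-well plates receive the compound at five concentrations for 48 hours. Endpoints are linearly interpolated between the surrounding concentrations. TGI marks complete inhibition of growth.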

`COc1ccc(C(=O)CCN(C)C)c2ccccc12`: the TGI in [1] is 27.4 µM; in experiment [2] it was 37.6 µM; in experiment [3], 11.8 µM; in [4] it was over 62 µM; in [5], 57 µM; in [6] it was 66.7 µM. Also, the TGI was 60 µM in experiment [7]; 34.4 µM in experiment [8]; 35.6 µM in experiment [9]; 50.5 µM in experiment [10]; 36.9 µM in experiment [11]; over 96.5 µM in experiment [12]. The TGI is 40.5 µM in experiment [13]; 41.9 µM in [14]; 33.1 µM in [15]; 60.3 µM in [16]; over 100 µM in experiment [17]; over 100 µM in [18]. Moreover, the TGI in [19] is over 54.4 µM; in experiment [20], 44.2 µM.
As for `Cn1c2ccccc2c2c3c(c4c5ccccc5n(C5OC(CO)C(O)C(O)C5O)c4c21)C(=O)OC3=O` (centres undefined), the TGI in [1], in [2], in experiment [3], in [4], in [5] and in [6] was over 100 µM throughout. Moreover, the TGI in experiment [7], in [8], in experiment [9], in [10], in experiment [11] and in experiment [12] was over 100 µM in each case. The TGI in experiment [13], in experiment [14], in experiment [15], in experiment [16], in experiment [17] and in experiment [18] was over 100 µM in each case. Further, the TGI in [19] and in [20] was over 100 µM throughout.
Consider `O=C1/C(=C/c2ccccc2)CCc2ccc([N+](=O)[O-])cc21`, for which the TGI in experiment [1] was over 80.3 µM; in [2], over 94.4 µM; in experiment [3] it was over 100 µM; in experiment [4] it was over 100 µM; in [5], over 100 µM; in [6], over 100 µM. For the same compound, the TGI in [7], in [8], in experiment [9], in experiment [10], in [11] and in experiment [12] was over 100 µM throughout. For the same compound, the TGI in [13] was over 100 µM; in [14], 77.7 µM; in [15] it was over 100 µM; in experiment [16], over 100 µM; in experiment [17], over 91.2 µM; in experiment [18], 91.3 µM. Further, the TGI in [19] and in [20] was over 100 µM each time.
For the compound `CC(C)=NOC(=O)OC[C@H]1O[C@@H](n2cnc3c(N)ncnc32)C(O)C1O` (some centres undefined), the TGI in [1], in experiment [2], in experiment [3], in experiment [4], in [5] and in experiment [6] was over 100 µM in each case. Further, the TGI in [7], in experiment [8], in experiment [9], in [10], in experiment [11] and in experiment [12] was over 100 µM in each case. Further, the TGI in experiment [13], in [14], in experiment [15], in [16], in [17] and in [18] was over 100 µM each time. For the same compound, the TGI in experiment [19] and in experiment [20] was over 100 µM each time.
Regarding `Cc1cccc2c(NCCN(C)C)c3cccc(C(=O)NCCN(C)C)c3nc12`, the TGI amounted to 3.38 µM in [1]; 4.55 µM in experiment [2]; 0.813 µM in [3]; 3.61 µM in experiment [4]; 1.82 µM in experiment [5]; 4.16 µM in [6]. Besides, the TGI came to 0.065 µM in experiment [7]; 1.62 µM in experiment [8]; 0.728 µM in [9]; 0.9 µM in experiment [10]; 5.54 µM in experiment [11]; 14.4 µM in experiment [12]. In addition, the TGI in experiment [13] was 10.2 µM; in experiment [14], 2.54 µM; in experiment [15] it was 0.68 µM; in [16], 8.37 µM; in experiment [17] it was 0.962 µM; in [18], 11.2 µM. In addition, the TGI in experiment [19] amounted to 8.94 µM; in [20] it was 1.63 µM.
In the case of `CCO[C@H]1O[C@@H]2OC3(C)CCC4[C@H](C)CCC([C@H]1C)[C@]42OO3` (some centres undefined), the TGI in [1], in experiment [2], in experiment [3], in experiment [4], in experiment [5] and in experiment [6] was over 100 µM in each case. In addition, the TGI is over 100 µM in experiment [7]; over 100 µM in experiment [8]; over 100 µM in [9]; over 100 µM in experiment [10]; 99.8 µM in [11]; over 68.6 µM in experiment [12]. The TGI in experiment [13] is 51.7 µM; in experiment [14] it was over 100 µM; in [15], over 100 µM; in [16], over 100 µM; in experiment [17] it was over 100 µM; in experiment [18], over 100 µM. Also, the TGI in [19] and in experiment [20] was over 100 µM each time.
Turning to `Cc1c(C(=O)Nc2ccccc2)nnn1-c1ccnc2cc(C(F)(F)F)ccc12`, the TGI was over 100 µM in experiment [1]; over 100 µM in experiment [2]; 81.5 µM in experiment [3]; over 100 µM in experiment [4]; over 100 µM in experiment [5]; over 100 µM in experiment [6]. Also, the TGI in experiment [7], in experiment [8], in experiment [9], in [10], in experiment [11] and in experiment [12] was over 100 µM in each case. Besides, the TGI is over 100 µM in experiment [13]; over 100 µM in [14]; over 100 µM in experiment [15]; over 100 µM in experiment [16]; 52.6 µM in [17]; over 100 µM in experiment [18]. Also, the TGI in [19] and in [20] was over 100 µM in each case.
Take `CC1=C[C@H]([C@H]2C=C(C)C(C(N)=O)=CN2Cc2c(Cl)cccc2Cl)N(Cc2c(Cl)cccc2Cl)C=C1C(N)=O`: the TGI in experiment [1], in experiment [2], in experiment [3], in [4], in experiment [5] and in experiment [6] was over 75 µM in each case. Further, the TGI in experiment [7], in experiment [8], in [9], in [10], in [11] and in experiment [12] was over 75 µM throughout. The TGI in experiment [13], in experiment [14], in experiment [15], in experiment [16], in experiment [17] and in [18] was over 75 µM throughout. Further, the TGI in [19] and in experiment [20] was over 75 µM each time.
As for `COC(=O)[C@@H]1C[C@]2(Br)c3ccccc3N(S(=O)(=O)c3ccccc3)[C@@H]2N1C(=O)OC`, the TGI in [1], in [2], in experiment [3], in experiment [4], in experiment [5] and in [6] was over 100 µM throughout. Also, the TGI in experiment [7], in [8], in experiment [9], in [10], in experiment [11] and in [12] was over 100 µM each time. Besides, the TGI in experiment [13] was over 100 µM; in experiment [14] it was 61.8 µM; in experiment [15], over 100 µM; in experiment [16] it was over 100 µM; in experiment [17] it was over 100 µM; in experiment [18] it was over 100 µM. The TGI in experiment [19] and in experiment [20] was over 100 µM throughout.
For the compound `O=S1(=O)c2ccccc2N2C(c3ccccc3)=NOC2(c2ccccc2)CC1c1ccc(Br)cc1` (centres undefined), the TGI in experiment [1], in [2], in [3], in [4], in experiment [5] and in [6] was over 100 µM each time. In addition, the TGI in experiment [7], in experiment [8], in [9], in experiment [10], in [11] and in experiment [12] was over 100 µM throughout. Also, the TGI in experiment [13], in [14], in [15], in [16], in experiment [17] and in [18] was over 100 µM each time. The TGI in experiment [19] and in [20] was over 100 µM throughout.
With `CC(=O)OC12CC[N+]3(C)CCCCC3C1=Nc1ccccc12` (centres undefined), the TGI in experiment [1], in experiment [2], in experiment [3], in experiment [4], in experiment [5] and in experiment [6] was over 100 µM each time. Besides, the TGI in experiment [7], in experiment [8], in experiment [9], in experiment [10], in [11] and in [12] was over 100 µM each time. In addition, the TGI in [13], in experiment [14], in experiment [15], in [16], in experiment [17] and in experiment [18] was over 100 µM each time. The TGI in [19] and in [20] was over 100 µM each time.
Regarding `Cc1ccc(N=C2OP(=O)(Nc3ccc(C)cc3)Oc3ccccc32)cc1` (centres undefined), the TGI in experiment [1], in experiment [2], in [3], in [4], in experiment [5] and in experiment [6] was over 100 µM in each case. Further, the TGI in experiment [7], in experiment [8], in [9], in [10], in experiment [11] and in experiment [12] was over 100 µM each time. In addition, the TGI in [13], in [14], in experiment [15], in experiment [16], in experiment [17] and in experiment [18] was over 100 µM in each case. The TGI in [19] and in [20] was over 100 µM throughout.
Regarding `COn1oc(=O)c2ccccc21`, the TGI in experiment [1], in [2], in experiment [3], in experiment [4], in experiment [5] and in [6] was over 100 µM in each case. Moreover, the TGI in [7], in experiment [8], in experiment [9], in [10], in experiment [11] and in experiment [12] was over 100 µM in each case. The TGI in experiment [13], in [14], in experiment [15], in [16], in experiment [17] and in experiment [18] was over 100 µM each time. The TGI in [19] and in experiment [20] was over 100 µM throughout.
Take `COc1ccc(NC(=O)C(C#N)=C(SC)SC)cc1`: the TGI in [1], in experiment [2], in experiment [3], in experiment [4], in [5] and in [6] was over 100 µM each time. Moreover, the TGI in experiment [7], in [8], in [9], in experiment [10], in experiment [11] and in experiment [12] was over 100 µM throughout. The TGI in [14], in experiment [15], in experiment [16], in [17], in experiment [18] and in experiment [19] was over 100 µM throughout. Besides, in experiment [20], the TGI is over 100 µM.
